Earlier results on one compound are cited in PubChem BioAssay AID1259409 (Chemical Carcinogenesis Research Information System (CCRIS), 2018).

In this data set the test system is rodent chemically induced tumor inhibition, incidence and multiplicity. Briefly: CCRIS tumor inhibitor studies. To be noted: Carcinogen: N-METHYL-N-NITROSOUREA, 684-93-5, Route [Inhibitor]: ORAL, Promoter: NONE USED.

For the compound `CC1=C(/C=C/C(C)=C/C=C/C(C)=C/C(=O)NCCO)C(C)(C)CCC1`, the “tumour outcome (control, treated, inhibition, significance)” value (Dose [Inhibitor]: 2 MMOL/KG DIET DAILY STARTING 12 D AFTER CARCINOGEN TREATMENT THROUGH ABOUT 8 MO AFTER CARCINOGEN DOSE (STUDY DURATION:, Species: RAT, Strain/Sex: F344/MALE, Target Tissue: Type of Lesion: COLON: ADENOMA, Dose [Carcinogen]: 2.5 MG 1/WK FOR 2 WK) was 16/39 (41%), 12/30 (40%), 5%, not significant; the “tumour outcome (control, treated, inhibition, significance)” value (Dose [Inhibitor]: 343 MG/KG DIET DAILY STARTING 1 WK AFTER LAST CARCINOGEN TREATMENT AND CONTINUING FOR 6 MO (STUDY DURATION: 9 MO), Species: HAMSTER, Strain/Sex: SYRIAN/MALE, Target Tissue: Type of Lesion: TRACHEA: BENIGN EPITHELIAL NEOPLASM, Dose [Carcinogen]: 0.5% IN 1 ML PHOSPHATE-BUFFERED SALINE 1/WK FOR 12 WK) was 6/63 (10%), 6/62 (10%), 0%, not significant; the “tumour outcome (control, treated, inhibition, significance)” value (Dose [Inhibitor]: 343 MG/KG DIET DAILY STARTING 1 WK AFTER LAST CARCINOGEN TREATMENT AND CONTINUING FOR 6 MO (STUDY DURATION: 9 MO), Species: HAMSTER, Strain/Sex: SYRIAN/MALE, Target Tissue: Type of Lesion: TRACHEA: CARCINOMA, Dose [Carcinogen]: 0.5% IN 1 ML PHOSPHATE-BUFFERED SALINE 1/WK FOR 12 WK) is reported as 4/63 (6%), 11/62 (18%), -200%, not significant; the “tumour outcome (control, treated, inhibition, significance)” value (Dose [Inhibitor]: 343 MG/KG DIET DAILY STARTING 1 WK AFTER LAST CARCINOGEN TREATMENT AND CONTINUING FOR 6 MO (STUDY DURATION: 9 MO), Species: HAMSTER, Strain/Sex: SYRIAN/MALE, Target Tissue: Type of Lesion: TRACHEA: EPITHELIAL NEOPLASM, Dose [Carcinogen]: 0.5% IN 1 ML PHOSPHATE-BUFFERED SALINE 1/WK FOR 12 WK) is listed as 10/63 (16%), 17/62 (27%), -69%, not significant; the “tumour outcome (control, treated, inhibition, significance)” value (Dose [Inhibitor]: 343 MG/KG IN DIET DAILY FOR 6 MO STARTING 1 WK AFTER FINAL CARCINOGEN DOSE (STUDY DURATION: 9 MO), Species: HAMSTER, Strain/Sex: SYRIAN/MALE, Target Tissue: Type of Lesion: TRACHEA: BENIGN EPITHELIAL NEOPLASM, Dose [Carcinogen]: 0.5% SOLUTION FOR 5 SECOND EXPOSURE 1/WK FOR 12 WK) was 6/63 (10%), 6/62 (10%), 0%, not significant; the “tumour outcome (control, treated, inhibition, significance)” value (Dose [Inhibitor]: 343 MG/KG IN DIET DAILY FOR 6 MO STARTING 1 WK AFTER FINAL CARCINOGEN DOSE (STUDY DURATION: 9 MO), Species: HAMSTER, Strain/Sex: SYRIAN/MALE, Target Tissue: Type of Lesion: TRACHEA: CARCINOMA, Dose [Carcinogen]: 0.5% SOLUTION FOR 5 SECOND EXPOSURE 1/WK FOR 12 WK) is reported as 4/63 (6%), 11/62 (18%), -200%, not significant. Also, the “tumour outcome (control, treated, inhibition, significance)” value reads like this: (Dose [Inhibitor]: 343 MG/KG IN DIET DAILY FOR 6 MO STARTING 1 WK AFTER FINAL CARCINOGEN DOSE (STUDY DURATION: 9 MO), Species: HAMSTER, Strain/Sex: SYRIAN/MALE, Target Tissue: Type of Lesion: TRACHEA: EPITHELIAL NEOPLASM, Dose [Carcinogen]: 0.5% SOLUTION FOR 5 SECOND EXPOSURE 1/WK FOR 12 WK) 10/63 (16%), 17/62 (27%), -69%, not significant; (Dose [Inhibitor]: 686 MG/KG DIET DAILY FOR 24 WK STARTING 5 D AFTER LAST DOSE OF CARCINOGEN (STUDY DURATION: 32 WK), Species: RAT, Strain/Sex: F344/MALE, Target Tissue: Type of Lesion: COLON: SARCOMA, Dose [Carcinogen]: 0.5 MG 2/WK FOR 8 WK) 5/40 (13%), 1/40 (3%), 77%, not calculated; (Dose [Inhibitor]: 686 MG/KG DIET DAILY FOR 24 WK STARTING 5 D AFTER LAST DOSE OF CARCINOGEN (STUDY DURATION: 32 WK), Species: RAT, Strain/Sex: F344/MALE, Target Tissue: Type of Lesion: COLON: TUMOR, Dose [Carcinogen]: 0.5 MG 2/WK FOR 8 WK) 60%, 68%, -13%, not significant; (Dose [Inhibitor]: 686 MG/KG DIET DAILY FOR 38 WK STARTING 5 D AFTER LAST DOSE OF CARCINOGEN (STUDY DURATION: 44 WK), Species: RAT, Strain/Sex: F344/MALE, Target Tissue: Type of Lesion: COLON: MESOTHELIOMA, Dose [Carcinogen]: 0.5 MG, 2/WK FOR 6 WK STARTING 6 WK PRIOR TO AGENT TREATMENT) 1/50 (2%), 2/49 (1%), 50%, not calculated; (Dose [Inhibitor]: 686 MG/KG DIET DAILY FOR 38 WK STARTING 5 D AFTER LAST DOSE OF CARCINOGEN (STUDY DURATION: 44 WK), Species: RAT, Strain/Sex: F344/MALE, Target Tissue: Type of Lesion: COLON: TUMOR, Dose [Carcinogen]: 0.5 MG 2/WK FOR 6 WK) 62%, 61%, 2%, not significant; (Dose [Inhibitor]: 686 MG/KG DIET DAILY FOR 48 WK STARTING 5 D AFTER LAST DOSE OF CARCINOGEN (STUDY DURATION: 52 WK), Species: RAT, Strain/Sex: F344/MALE, Target Tissue: Type of Lesion: COLON: TUMOR, Dose [Carcinogen]: 0.5 MG 2/WK FOR 4 WK) 31%, 27%, 13%, not significant.
